In ChEMBL document CHEMBL2074557 (Drug Metab Dispos, 1999):

Target: ATP-dependent translocase ABCB1 (Mus musculus, UniProt P21447)
Assay: TP_TRANSPORTER: increase in plasma concentration in PGP(-/-) mouse
Assay type: functional, organism-based
Conditions: in vivo

ATP-dependent translocase ABCB1, sequence (P21447 whole entry): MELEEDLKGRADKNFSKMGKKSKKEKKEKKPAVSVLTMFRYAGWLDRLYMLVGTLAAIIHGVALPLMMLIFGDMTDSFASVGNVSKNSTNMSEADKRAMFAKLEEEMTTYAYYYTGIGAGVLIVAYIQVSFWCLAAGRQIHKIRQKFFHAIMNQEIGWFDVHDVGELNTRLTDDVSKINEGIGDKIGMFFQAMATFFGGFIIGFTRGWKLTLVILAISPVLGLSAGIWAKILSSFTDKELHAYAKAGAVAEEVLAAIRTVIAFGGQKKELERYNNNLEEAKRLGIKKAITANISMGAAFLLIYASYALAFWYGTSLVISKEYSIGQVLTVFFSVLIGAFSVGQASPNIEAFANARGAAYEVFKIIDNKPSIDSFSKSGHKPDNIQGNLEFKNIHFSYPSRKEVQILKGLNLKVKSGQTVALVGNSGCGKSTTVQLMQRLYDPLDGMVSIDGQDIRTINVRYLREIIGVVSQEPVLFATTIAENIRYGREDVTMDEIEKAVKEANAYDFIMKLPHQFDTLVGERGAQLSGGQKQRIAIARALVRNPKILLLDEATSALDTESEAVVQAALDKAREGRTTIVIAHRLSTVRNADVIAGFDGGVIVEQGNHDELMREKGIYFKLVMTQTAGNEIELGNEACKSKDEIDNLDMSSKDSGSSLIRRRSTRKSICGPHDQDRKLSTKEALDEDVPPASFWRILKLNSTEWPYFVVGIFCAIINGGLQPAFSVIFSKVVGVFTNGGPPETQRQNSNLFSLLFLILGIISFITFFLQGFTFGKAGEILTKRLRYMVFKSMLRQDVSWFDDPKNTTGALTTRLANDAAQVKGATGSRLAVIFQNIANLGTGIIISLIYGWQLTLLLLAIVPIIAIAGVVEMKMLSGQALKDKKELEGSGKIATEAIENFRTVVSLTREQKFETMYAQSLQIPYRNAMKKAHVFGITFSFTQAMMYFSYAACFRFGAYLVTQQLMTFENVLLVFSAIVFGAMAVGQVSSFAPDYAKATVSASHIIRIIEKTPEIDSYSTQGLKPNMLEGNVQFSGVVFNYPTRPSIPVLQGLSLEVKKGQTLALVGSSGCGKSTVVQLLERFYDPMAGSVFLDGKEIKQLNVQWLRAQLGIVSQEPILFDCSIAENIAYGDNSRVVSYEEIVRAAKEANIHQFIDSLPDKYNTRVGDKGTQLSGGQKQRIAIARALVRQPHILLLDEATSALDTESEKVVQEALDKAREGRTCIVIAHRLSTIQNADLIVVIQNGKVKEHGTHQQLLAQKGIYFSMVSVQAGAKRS

Activity: substrate [+]
Sequence: IVERMECTIN
